Assay results as given in ChEMBL document CHEMBL4138160, “Biphenylthiazole antibiotics with an oxadiazole linker: An approach to improve physicochemical properties and oral bioavailability” (Eur J Med Chem, 2018).
≈ marks a conversion by molar mass, not a printed value. Calls of active or inactive are those of the source. No cut-off for these calls is given here.

Experiments:
BHK-21 [1] = test: Cytotoxicity against BHK21 cells assessed as decrease in cell viability after 6 hrs by MTT assay; type: cell-based; conditions: Mesocricetus auratus, BHK-21, 6 h
BHK-21 [2] = test: Cytotoxicity against BHK21 cells assessed as decrease in cell viability after 24 hrs by MTT assay; type: cell-based; conditions: Mesocricetus auratus, BHK-21, 24 h
[3] = Aqueous solubility in PBS after 2 hrs; type: physicochemical; conditions: buffer
Staphylococcus aureus [4] = test: Antibacterial activity against methicillin-resistant Staphylococcus aureus 2658 RCMB after 20 hrs by broth microdilution method; type: functional
HRT-18 cell line [5] = test: Cytotoxicity against human HRT18 cells assessed as decrease in cell viability at 512 ug/ml after 2 hrs by MTS assay; type: cell-based; conditions: hrt-18, 2 h
[6] = Ratio of non cytotoxic concentration against human HRT18 cells to MIC for methicillin-resistant Staphylococcus aureus 2658 RCMB; type: toxicity, cell-based
Staphylococcus aureus [7] = test: Potency index, ratio of vancomycin MIC to test compound MIC for Staphylococcus aureus VRS12 clinical isolate; type: functional
[8] = AUClast in Sprague-Dawley rat at 25 mg/kg administered via oral gavage measured over 24 hrs by LC-MS/MS analysis; type: ADME, organism-based; parameters: dose 25 mg/kg, route oral, time 0 - last; conditions: in vivo
[9] = Half life in Sprague-Dawley rat at 25 mg/kg administered via oral gavage measured over 24 hrs by LC-MS/MS analysis; type: ADME, organism-based; conditions: in vivo
Staphylococcus aureus [10] = test: Antibacterial activity against Staphylococcus aureus RN4220 NRS107 clinical isolate after 20 hrs by broth microdilution method; type: functional; conditions: RN4220 NRS107, 20 h
Enterococcus faecalis = test: Antibacterial activity against vancomycin-resistant Enterococcus faecalis ATCC 51299 after 20 hrs by broth microdilution method; type: functional; conditions: ATCC 51299, 20 h
Staphylococcus aureus [11] = test: Antibacterial activity against Staphylococcus aureus VRS12 clinical isolate after 20 hrs by broth microdilution method; type: functional; conditions: VRS12, 20 h
Staphylococcus aureus [12] = test: Antibacterial activity against Staphylococcus aureus USA400 NRS123 clinical isolate after 20 hrs by broth microdilution method; type: functional; conditions: USA400 NRS123, 20 h
Staphylococcus aureus [13] = test: Antibacterial activity against Staphylococcus aureus VRS10 clinical isolate after 20 hrs by broth microdilution method; type: functional; conditions: VRS10, 20 h
Klebsiella pneumoniae = test: Antibacterial activity against Klebsiella pneumoniae BAA-1706 after 20 hrs by broth microdilution method; type: functional; conditions: BAA-1706, 20 h
Rattus norvegicus [14] = test: Tmax in Sprague-Dawley rat at 25 mg/kg administered via oral gavage measured over 24 hrs by LC-MS/MS analysis; type: ADME, organism-based; conditions: in vivo
Staphylococcus aureus [15] = test: Bactericidal activity against methicillin-resistant Staphylococcus aureus USA300 at 4 times MIC after 24 hrs by time kill assay; type: functional, organism-based
Staphylococcus aureus [16] = test: Antibacterial activity against methicillin-resistant Staphylococcus aureus USA300 NRS384 at sub MIC after 14 passages over 2 weeks by broth microdilution method; type: functional, organism-based
[17] = Ratio of Cmax in Sprague-Dawley rat at 25 mg/kg administered via oral gavage to MIC for methicillin-resistant Staphylococcus aureus 2658 RCMB; type: ADME, organism-based; conditions: in vivo
Staphylococcus aureus [18] = test: Potency index, ratio of vancomycin MIC to test compound MIC for Staphylococcus aureus VRS11a clinical isolate; type: functional
Pseudomonas aeruginosa = test: Antibacterial activity against Pseudomonas aeruginosa ATCC 15442 after 20 hrs by broth microdilution method; type: functional; conditions: ATCC 15442, 20 h
Rattus norvegicus [19] = test: Oral bioavailability in Sprague-Dawley rat at 25 mg/kg administered via gavage measured over 24 hrs by LC-MS/MS analysis; type: ADME, organism-based; conditions: in vivo
Acinetobacter baumannii = test: Antibacterial activity against Acinetobacter baumannii ATCC 19606 after 20 hrs by broth microdilution method; type: functional; conditions: ATCC 19606 = CIP 70.34 = JCM 6841, 20 h
Staphylococcus aureus [20] = test: Bactericidal activity against methicillin-resistant Staphylococcus aureus USA300 at 4 times MIC after 12 hrs by time kill assay; type: functional
Staphylococcus aureus [21] = test: Antibacterial activity against Staphylococcus aureus VRS11a clinical isolate after 20 hrs by broth microdilution method; type: functional
Enterobacter cloacae = test: Antibacterial activity against Enterobacter cloacae BAA-1154 after 20 hrs by broth microdilution method; type: functional; conditions: BAA-1154, 20 h
Enterococcus faecium = test: Antibacterial activity against vancomycin-resistant Enterococcus faecium ATCC 700221 after 20 hrs by broth microdilution method; type: functional; conditions: ATCC 700221, 20 h
Rattus norvegicus [22] = test: Cmax in Sprague-Dawley rat at 25 mg/kg administered via oral gavage measured over 24 hrs by LC-MS/MS analysis; type: ADME, organism-based; parameters: dose 25 mg/kg, route oral; conditions: in vivo
HRT-18 cell line [23] = test: Cytotoxicity against human HRT18 cells assessed as decrease in cell viability up to 256 ug/ml after 2 hrs by MTS assay; type: cell-based; conditions: hrt-18, 2 h

## Cc1nc(-c2ccc(-c3ccccc3)cc2)sc1-c1nnc(NC(=N)N)o1
BHK-21 [1]
  IC50: > 1000 µg/mL
BHK-21 [2]
  IC50: 45 µg/mL (≈ 119 µM)
[3]
  solubility: 128 µM (≈ 48.2 µg/mL)
Staphylococcus aureus [4]
  MIC: 1.56 µg/mL (≈ 4.14 µM)

## Cc1nc(-c2ccc(-c3ccccc3)cc2)sc1-c1nnc(NC(=N)c2cccnc2)o1
Staphylococcus aureus [4]
  MIC: > 25 µg/mL

## Cc1nc(-c2ccc(-c3ccccc3)cc2)sc1-c1nnc(NC(=N)N2CCCC2)o1
Staphylococcus aureus [4]
  MIC: 12.5 µg/mL (≈ 29 µM)

## Cc1nc(-c2ccc(-c3ccccc3)cc2)sc1-c1nnc(NC(=N)N2CCN(C)CC2)o1
HRT-18 cell line [5]
  Activity: Non-Toxic
[6]
  selectivity ratio: > 400
Staphylococcus aureus [7]
  Ratio: 30
[8]
  AUC(0-t) at 24 h: 83200 ng·h/mL
[9]
  half-life: 2.04 h
Staphylococcus aureus [10]
  MIC: 8 µg/mL (≈ 17.4 µM)
Enterococcus faecalis
  MIC: > 64 µg/mL
Staphylococcus aureus [11]
  MIC: 16 µg/mL (≈ 34.8 µM)
BHK-21 [1]
  IC50: 398 µg/mL (≈ 866 µM)
Staphylococcus aureus [12]
  MIC: 16 µg/mL (≈ 34.8 µM)
BHK-21 [2]
  IC50: 45.7 µg/mL (≈ 99.4 µM)
Staphylococcus aureus [13]
  MIC: 16 µg/mL (≈ 34.8 µM)
Klebsiella pneumoniae
  MIC: > 64 µg/mL
Rattus norvegicus [14]
  Tmax: 1.7 h
Staphylococcus aureus [15]
  Activity: Active
Staphylococcus aureus [16]
  Activity: Active
[17]
  Ratio: 6
Staphylococcus aureus [18]
  Ratio: 30
Pseudomonas aeruginosa
  MIC: > 64 µg/mL
Rattus norvegicus [19]
  F: 42.5%
Acinetobacter baumannii
  MIC: > 64 µg/mL
Staphylococcus aureus [20]
  Activity: 3 deltalog10CFU/ml
[3]
  solubility: 104 µM (≈ 47.8 µg/mL)
Staphylococcus aureus [21]
  MIC: 16 µg/mL (≈ 34.8 µM)
Enterobacter cloacae
  MIC: > 64 µg/mL
Enterococcus faecium
  MIC: > 64 µg/mL
Rattus norvegicus [22]
  Cmax: 6222.1 ng/mL
Staphylococcus aureus [4]
  MIC: 1.17 µg/mL (≈ 2.55 µM)

## Cc1nc(-c2ccc(-c3ccccc3)cc2)sc1-c1nnc(N2CC(O)C2)o1
[3]
  solubility: 150 µM (≈ 58.6 µg/mL)
Staphylococcus aureus [4]
  MIC: 3.12 µg/mL (≈ 7.99 µM)

## Cc1nc(-c2ccc(-c3ccccc3)cc2)sc1-c1nnc(NC(C)C)o1
Staphylococcus aureus [4]
  MIC: > 25 µg/mL

## Cc1nc(-c2ccc(-c3ccccc3)cc2)sc1-c1nnc(NC(=N)N2CCOCC2)o1
HRT-18 cell line [23]
  Activity: Non-Toxic
Staphylococcus aureus [16]
  Activity: Active
Staphylococcus aureus [4]
  MIC: 1.56 µg/mL (≈ 3.49 µM)

## Cc1nc(-c2ccc(-c3ccccc3)cc2)sc1-c1nnc(N2CCCC2)o1
Staphylococcus aureus [4]
  MIC: > 25 µg/mL

## CNc1nnc(-c2sc(-c3ccc(-c4ccccc4)cc3)nc2C)o1
Staphylococcus aureus [4]
  MIC: 12.5 µg/mL (≈ 35.9 µM)

## Cc1nc(-c2ccc(-c3ccccc3)cc2)sc1-c1nnc(N2CCOCC2)o1
Staphylococcus aureus [4]
  MIC: 12.5 µg/mL (≈ 30.9 µM)

## CN[C@H](CC(C)C)C(=O)N[C@H]1C(=O)N[C@@H](CC(N)=O)C(=O)N[C@H]2C(=O)N[C@H]3C(=O)N[C@H](C(=O)N[C@H](C(=O)O)c4cc(O)cc(O)c4-c4cc3ccc4O)[C@H](O)c3ccc(c(Cl)c3)Oc3cc2cc(c3O[C@@H]2O[C@H](CO)[C@@H](O)[C@H](O)[C@H]2O[C@H]2C[C@](C)(N)[C@H](O)[C@H](C)O2)Oc2ccc(cc2Cl)[C@H]1O [VANCOMYCIN]
Staphylococcus aureus [11]
  MIC: > 512 µg/mL
Staphylococcus aureus [21]
  MIC: > 512 µg/mL
Enterococcus faecium
  MIC: > 64 µg/mL
Staphylococcus aureus [4]
  MIC: 1.56 µg/mL (≈ 1.08 µM)

## CNC(=N)Nc1nnc(-c2sc(-c3ccc(-c4ccccc4)cc3)nc2C)o1
[3]
  solubility: 89 µM (≈ 34.8 µg/mL)
Staphylococcus aureus [4]
  MIC: 1.56 µg/mL (≈ 4 µM)

## Cc1nc(-c2ccc(-c3ccccc3)cc2)sc1-c1nnc(N(C)C)o1
Staphylococcus aureus [4]
  MIC: > 25 µg/mL

## C/C(=N\NC(=N)N)c1sc(-c2ccc(-c3ccccc3)cc2)nc1C
[3]
  solubility: 2.7 µM (≈ 0.944 µg/mL)
Staphylococcus aureus [4]
  MIC: 2.75 µg/mL (≈ 7.87 µM)

## Cc1nc(-c2ccc(-c3ccccc3)cc2)sc1-c1nnc(NN)o1
[3]
  solubility: 77 µM (≈ 26.9 µg/mL)
Staphylococcus aureus [4]
  MIC: 3.12 µg/mL (≈ 8.93 µM)
